The values below are quoted from earlier work in US11839619B2, “Methods for treatment of pediatric systemic mastocytosis” (The Regents of the University of California, priority 2019, dated 2023).

The conditions of this series: in vivo.

Regarding `CO[C@@H]1[C@H](N(C)C(=O)c2ccccc2)C[C@H]2O[C@]1(C)n1c3ccccc3c3c4c(c5c6ccccc6n2c5c31)C(=O)NC4` [midostaurin], the common side effects entry is “nausea, vomiting, diarrhea, and thrombocytopenia”.
